Reference: ChEMBL document CHEMBL1140790, “Determination of absolute stereochemistry, total synthesis, and evaluation of peptides from the myxomycete Physarum melleum” (Bioorg Med Chem Lett, 2008)
Activity calls are given as the source filed them. No cut-off for these calls is given here.

Assay: Inhibition of Wnt signal activity by luciferase superTOP-Flash gene assay

| Structure (SMILES) | Activity |
| --- | --- |
| COC(=O)C[C@H](O)[C@H](Cc1ccc(O)cc1)NC(=O)CNC(=O)[C@@H](NC(=O)c1ccc(OC)cc1)[C@@H](C)O | inactive |
| COC(=O)C[C@H](O)[C@H](Cc1ccc(O)cc1)NC(=O)CNC(=O)[C@H](NC(=O)c1ccc(OC)cc1)[C@@H](C)O | Active |
